Experimental data taken from patent publication US8741912B2, “Deazapurines useful as inhibitors of Janus kinases” (Vertex Pharmaceuticals Incorporated, priority 2006, dated 2014).

Tests used:
JAK3 = target: T1, JAK3 (Homo sapiens, UniProt P52333); assay: JAK3 inhibition assay (33P incorporation into poly(Glu)4Tyr); format: biochemical; conditions: 1 nM JAK3; 1 μM poly(Glu)4Tyr, 5 μM ATP, 25° C.; read-out: JAK3 enzyme inhibition (Ki)
T1 sequence (P52333 1-1124): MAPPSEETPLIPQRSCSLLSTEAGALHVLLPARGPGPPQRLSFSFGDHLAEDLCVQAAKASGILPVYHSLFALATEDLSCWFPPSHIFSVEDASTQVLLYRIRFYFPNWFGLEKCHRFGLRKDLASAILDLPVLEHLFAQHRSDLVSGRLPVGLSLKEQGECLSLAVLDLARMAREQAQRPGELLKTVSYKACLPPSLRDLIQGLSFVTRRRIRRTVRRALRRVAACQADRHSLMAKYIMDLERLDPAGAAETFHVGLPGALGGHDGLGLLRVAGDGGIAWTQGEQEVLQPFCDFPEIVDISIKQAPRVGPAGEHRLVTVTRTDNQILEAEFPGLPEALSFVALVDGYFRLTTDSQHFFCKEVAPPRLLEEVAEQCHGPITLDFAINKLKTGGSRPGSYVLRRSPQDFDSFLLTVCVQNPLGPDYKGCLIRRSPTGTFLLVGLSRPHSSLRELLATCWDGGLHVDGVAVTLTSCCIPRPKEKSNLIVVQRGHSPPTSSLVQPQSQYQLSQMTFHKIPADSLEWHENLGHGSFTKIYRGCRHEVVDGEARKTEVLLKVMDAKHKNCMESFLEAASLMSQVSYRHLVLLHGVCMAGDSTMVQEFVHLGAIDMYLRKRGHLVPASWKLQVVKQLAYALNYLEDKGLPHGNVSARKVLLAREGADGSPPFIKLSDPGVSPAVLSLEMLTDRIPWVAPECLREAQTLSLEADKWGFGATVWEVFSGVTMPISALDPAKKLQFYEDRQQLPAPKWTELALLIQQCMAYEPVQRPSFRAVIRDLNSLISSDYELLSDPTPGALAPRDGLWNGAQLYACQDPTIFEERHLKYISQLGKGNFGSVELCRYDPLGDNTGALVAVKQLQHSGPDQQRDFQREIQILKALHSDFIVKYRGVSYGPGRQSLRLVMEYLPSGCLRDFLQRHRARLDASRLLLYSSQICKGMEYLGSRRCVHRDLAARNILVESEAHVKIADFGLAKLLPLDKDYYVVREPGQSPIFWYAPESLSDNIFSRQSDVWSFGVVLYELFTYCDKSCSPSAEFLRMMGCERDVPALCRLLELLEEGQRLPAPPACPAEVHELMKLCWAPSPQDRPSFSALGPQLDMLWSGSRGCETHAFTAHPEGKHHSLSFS
Procedure: (§1) Compounds were screened for their ability to inhibit JAK3 using the assay shown below. Reactions were carried out in a kinase buffer containing 100 mM HEPES (pH 7.4), 1 mM DTT, 10 mM MgCl2, 25 mM NaCl, and 0.01% BSA. Substrate concentrations in the assay were 5 μM ATP (200 uCi/μmole ATP) and 1 μM poly(Glu)4Tyr. Reactions were carried out at 25° C. and 1 nM JAK3.
(§2) To each well of a 96 well polycarbonate plate was added 1.5 μl of a candidate JAK3 inhibitor along with 50 μl of kinase buffer containing 2 μM poly(Glu)4Tyr and 10 μM ATP. This was then mixed and 50 μl of kinase buffer containing 2 nM JAK3 enzyme was added to start the reaction. After 20 minutes at room temperature (25° C.), the reaction was stopped with 50 μl of 20% trichloroacetic acid (TCA) that also contained 0.4 mM ATP. The entire contents of each well were then transferred to a 96 well glass fiber filter plate using a TomTek Cell Harvester. After washing, 60 μl of scintillation fluid was added and ^33P incorporation detected on a Perkin Elmer TopCount.

JAK-2 enzyme = JAK-2 enzyme (Homo sapiens, UniProt O60674); assay: JAK2 inhibition assay (33P incorporation into poly(Glu)4Tyr); format: biochemical; conditions: 15 μM poly(Glu)4Tyr, 12 μM ATP
Procedure: as §1, §2
The assays were as described above in Example 36 except that JAK-2 enzyme was used, the final poly(Glu)4Tyr concentration was 15 μM, and final ATP concentration was 12 μM.

Chain of JAK-2 enzyme (O60674 whole entry): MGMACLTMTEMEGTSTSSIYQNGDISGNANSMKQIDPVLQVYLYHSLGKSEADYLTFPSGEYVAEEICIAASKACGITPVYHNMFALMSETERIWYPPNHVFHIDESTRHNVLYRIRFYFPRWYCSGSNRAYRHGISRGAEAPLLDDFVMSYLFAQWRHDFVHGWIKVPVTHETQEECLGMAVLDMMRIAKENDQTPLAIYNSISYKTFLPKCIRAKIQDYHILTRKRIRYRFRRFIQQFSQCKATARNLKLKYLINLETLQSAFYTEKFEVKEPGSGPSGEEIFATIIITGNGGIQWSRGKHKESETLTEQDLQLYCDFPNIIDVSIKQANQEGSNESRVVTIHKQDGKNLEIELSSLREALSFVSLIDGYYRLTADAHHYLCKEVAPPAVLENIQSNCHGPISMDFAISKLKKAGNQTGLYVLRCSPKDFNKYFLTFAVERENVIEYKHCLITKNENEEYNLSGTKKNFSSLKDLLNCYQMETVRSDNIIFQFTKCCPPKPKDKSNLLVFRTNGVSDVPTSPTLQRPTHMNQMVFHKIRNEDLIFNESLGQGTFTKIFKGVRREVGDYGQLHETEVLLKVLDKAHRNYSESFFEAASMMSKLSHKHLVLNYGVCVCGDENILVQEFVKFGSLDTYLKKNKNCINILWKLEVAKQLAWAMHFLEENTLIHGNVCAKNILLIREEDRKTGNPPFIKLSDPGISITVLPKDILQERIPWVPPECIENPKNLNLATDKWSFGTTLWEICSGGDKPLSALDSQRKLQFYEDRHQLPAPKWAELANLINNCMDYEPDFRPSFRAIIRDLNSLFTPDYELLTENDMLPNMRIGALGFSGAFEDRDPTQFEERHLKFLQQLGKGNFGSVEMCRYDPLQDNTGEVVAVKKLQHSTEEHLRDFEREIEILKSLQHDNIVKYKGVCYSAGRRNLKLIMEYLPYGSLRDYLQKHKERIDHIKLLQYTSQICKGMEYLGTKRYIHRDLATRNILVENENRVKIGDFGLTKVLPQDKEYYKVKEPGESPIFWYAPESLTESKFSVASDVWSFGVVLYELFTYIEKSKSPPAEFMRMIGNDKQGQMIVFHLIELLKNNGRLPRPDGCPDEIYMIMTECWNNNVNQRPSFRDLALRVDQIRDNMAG

## CN(CC#N)C(=O)c1cc(-c2ncnc3[nH]ccc23)cn1C [Compound 236]
JAK3
  Ki: 100 to 500 nM
JAK-2 enzyme
  Ki: < 100 nM
